Data set [1] relates to VCaP cells. In words: Cell viability assay (CellTiter-Glo, 5 days). It is filed as cell-based, human. The procedure:
(§1) Cells were seeded in 96-well plates and incubated at 37°C with 5% CO2 overnight. A series of compound dilutions were added into the cells. After 5 days incubation, cell proliferation was tested using the CellTiter-Glo assay (Promega) according to the manufacturer’s protocol. Luminescence was measured using the Infinite M1000 Pro plate reader (Tecan). Data analysis was conducted using GraphPad Prism software.

The next data set relates to 22RV1. Nature of the data set: Cell viability assay (CellTiter-Glo, 5 days). It is filed as cell-based. The note with it: Homo sapiens, 120 h; 22RV1, 5 days of treatment, Figure 1F. The procedure: as §1
A general note: In ATP-based viability assays light output follows the ATP content of the culture.

In another data set the test system is BPH-1. In words: Cell viability assay (CellTiter-Glo, 5 days). The note with it: Homo sapiens, 120 h; BPH-1, 5 days of treatment, Figure 1F. In kind it is cell-based. The procedure:
as §1

Another data set has as its system CWR22RV1. Nature of the data set: Cell viability assay (CellTiter-Glo, 5 days). The note with it: Homo sapiens, 120 h; CWR22RV1, 5 days of treatment, Figure 1F. It is filed as cell-based. On the procedure: as §1
For a further data set, the system named is DU145. In words: Cell viability assay (CellTiter-Glo, 5 days). The note with it: Homo sapiens, DU-145, 120 h; DU145, 5 days of treatment, Figure 1F. In kind it is cell-based. The procedure: as §1
The test system of a further data set is LAPC4. In words: Cell viability assay (CellTiter-Glo, 5 days). The note with it: Homo sapiens, 120 h; LAPC4, 5 days of treatment, Figure 1F. It is filed as cell-based. The procedure: as §1
In a further data set the test system is MCF10A. In words: Cell viability assay (CellTiter-Glo, 5 days). It is filed as cell-based. The note with it: Homo sapiens, MCF-10A, 120 h, 5 days of treatment, Figure 1F. The procedure:
as §1

The next data set concerns MCF12A. Nature of the data set: Cell viability assay (CellTiter-Glo, 5 days). It is filed as cell-based. The note with it: Homo sapiens, MCF-12A, 120 h, 5 days of treatment, Figure 1F. On the procedure: as §1
In another data set the test system is MCF7. Nature of the data set: Cell viability assay (CellTiter-Glo, 5 days). In kind it is cell-based. The note with it: Homo sapiens, 120 h; MCF7, 5 days of treatment, Figure 1F. The procedure:
as §1

For a further data set, the system named is MDA-MB-468. In words: Cell viability assay (CellTiter-Glo, 5 days). In kind it is cell-based. The note with it: Homo sapiens, 120 h; MDA-MB-468, 5 days of treatment, Figure 1F. The procedure: as §1
A further data set relates to MFM223. Nature of the data set: Cell viability assay (CellTiter-Glo, 5 days). It is filed as cell-based. The note with it: Homo sapiens, MFM-223, 120 h; MFM223, 5 days of treatment, Figure 1F. The procedure: as §1
In the next data set the test system is PC3. Nature of the data set: Cell viability assay (CellTiter-Glo, 5 days). It is filed as cell-based. The note with it: Homo sapiens, PC-3, 120 h; PC3, 5 days of treatment, Figure 1F. The procedure: as §1
A further data set concerns PNT2. In words: Cell viability assay (CellTiter-Glo, 5 days). The note with it: Homo sapiens, 120 h; PNT2, 5 days of treatment, Figure 1F. In kind it is cell-based. The procedure:
as §1

The test system of a further data set is PrEC. Nature of the data set: Cell viability assay (CellTiter-Glo, 5 days). The note with it: Homo sapiens, 120 h, 5 days of treatment, Figure 1F. In kind it is cell-based. On the procedure: as §1
Another data set has as its system RWPE1. In words: Cell viability assay (CellTiter-Glo, 5 days). It is filed as cell-based. The note with it: Homo sapiens, RWPE-1, 120 h; RWPE1, 5 days of treatment, Figure 1F. The procedure: as §1
A further data set has as its system SK-BR-3. In words: Cell viability assay (CellTiter-Glo, 5 days). The note with it: Homo sapiens, 120 h; SK-BR-3, 5 days of treatment, Figure 1F. In kind it is cell-based. On the procedure:
as §1

A further data set relates to WPMY-1. In words: Cell viability assay (CellTiter-Glo, 5 days). In kind it is cell-based. The note with it: Homo sapiens, 120 h; WPMY-1, 5 days of treatment, Figure 1F. On the procedure: as §1
Data set [2] relates to VCaP cells. Nature of the data set: Comet assay. In kind it is cell-based, human. The note with it: 100 nM, 12 h. On the procedure:
VCaP cells were seeded in 6-well plates one day prior to treatment. […] After 12 h incubation, the cells were trypsinized and resuspended at a concentration of 1 × 10^5 cells/mL in ice-cold PBS. The OxiSelect Comet Assay Kit (Cell Biolabs, STA-351) was used to assess DNA damage. Following the manufacturer’s protocol, cells were combined with pre-heated comet agarose at a 1:10 ratio, mixed thoroughly, and then transferred onto slides. The slides were incubated horizontally in the dark at 4°C for 20 min. Afterward, they were immersed in pre-chilled lysis buffer for 40 min at 4°C in the dark, followed by a 30-min incubation in pre-chilled alkaline solution at 4°C in the dark. Electrophoresis was then performed using alkaline solution at 30 V for 20 min. After electrophoresis, the slides were rinsed three times with pre-chilled deionized water, following with 70% ethanol for 5 min and completely dried at 37°C for 30 min. Subsequently, 100 μL of diluted Vista Green DNA dye was applied to each well. After 15 min incubation at room temperature, the comets were observed using a fluorescence microscope and quantified using ImageJ. The quantification figure was generated using GraphPad Prism software.

A further data set deals with CDK12 and CDK13. The note with it: VCaP cells. On the procedure:
After treatment of varying conditions, cell lysates were prepared using RIPA buffer (ThermoFisher Scientific) supplemented with cOmplete protease inhibitor cocktail tablets (Sigma-Aldrich). The Pierce BCA Protein Assay Kit ([…]) was used to determine the protein concentrations. Proteins with an equal amount from each sample were loaded on NuPAGE 3–8% Tris-Acetate or 4–12% Bis-Tris protein gels (ThermoFisher Scientific) and subsequently transferred to membranes, which were blocked using 5% nonfat milk. Following blocking at room temperature for 1 h, the membrane was further incubated with varying primary antibodies at 4°C overnight. HRP-conjugated secondary antibodies were used for detection, and membrane imaging was conducted using an Odyssey Fc Imager (LI-COR Biosciences).

Data set [3] can be described thus: Pharmacokinetic profile in Sprague Dawley rats. The note with it: SD rats. It is filed as in vivo, rat.
Where [4] appears, read: VCaP cells, 5 days, Figure S1E, read-out: IC50.
The mark [5] stands for this setting: VCaP cell viability, linker optimization, Figure S4B, read-out: VCaP IC50.

“And” between values parts separate entries of the source, which are not always exact repeats. Equal entries are not always repeated. Where two headings read alike, the source gives them in different places.

As for `CN(C)C/C=C/C(=O)Nc1ccc(C(=O)N2CCC[C@@H](Nc3ncc(Cl)c(-c4c[nH]c5ccccc45)n3)C2)cc1` [THZ531, reference compound], the IC50 (as a rule, the concentration needed to halve the response being measured) amounted to 33.5 nM in the data set with VCaP cells [1] (Homo sapiens, VCaP, 120 h, VCaP, 5 days of treatment, Figure 1F, read-out: IC50); 85.7 nM with 22RV1; 356 nM in the data set with BPH-1; 69.7 nM in the data set on CWR22RV1; 230 nM in the data set on DU145; 6.38 nM in the data set with LAPC4. Moreover, the concentration for half-maximal inhibition (IC50) was determined as 396 nM in the data set on MCF10A; 310 nM in the data set with MCF12A; 356 nM in the data set on MCF7; 158 nM with MDA-MB-468; 33.3 nM in the data set with MFM223; 120 nM in the data set with PC3. The IC50 worked out at 1530 nM in the data set on PNT2; 335 nM with PrEC; 404 nM in the data set with RWPE1; 64.8 nM in the data set with SK-BR-3; 311 nM in the data set with WPMY-1. Further, the “DNA damage (tail moment)” value in the data set on VCaP cells [2] is listed as “significant increase in the tail moment”.

`CN1C(=O)CCC(N2C(=O)c3cccc(OCC(=O)N4CCN(c5ccc(N(C(=O)NCc6ccccc6)C6CCC(Nc7ncc8ccccc8n7)CC6)cc5)CC4)c3C2=O)C1=O` (stereo not shown) [YJ1078]: the IC50 with VCaP cells [1] (setting [4]) was > 3000 nM. The “CDK12/13 degradation (immunoblot)” value in the data set on CDK12 and CDK13 was “did not affect target protein levels”.

On to `O=C1CCC(N2C(=O)c3ccc(OCC(=O)N4CCN(c5ccc(N(C(=O)NCc6ccccc6)C6CCC(Nc7ncc8ccccc8n7)CC6)cc5)CC4)cc3C2=O)C(=O)N1` (stereo not shown) [YJ1090], for which the IC50 in the data set with VCaP cells [1] (setting [5]) turned out to be 93.8 nM. The “CDK12/13 degradation (immunoblot)” value in the data set with CDK12 and CDK13 is reported as “retained the CDK12/13 degradation abilities”.

Regarding `O=C1CCC(N2Cc3ccc(OCC(=O)N4CCN(c5ccc(N(C(=O)NCc6ccccc6)C6CCC(Nc7ncc8ccccc8n7)CC6)cc5)CC4)cc3C2=O)C(=O)N1` (stereo not shown) [YJ1094], the IC50 with VCaP cells [1] (setting [5]) came out at 25.2 nM. The “CDK12/13 degradation (immunoblot)” value in the data set with CDK12 and CDK13 is listed as “retained the CDK12/13 degradation abilities”.

Take `O=C1CCC(N2C(=O)c3ccc(N4CCC(N5CCN(c6ccc(N(C(=O)NCc7ccccc7)C7CCC(Nc8ncc9ccccc9n8)CC7)cc6)CC5)C4)cc3C2=O)C(=O)N1` (stereo not shown) [YJ1096]: the half-maximal inhibitory concentration (IC50) in the data set on VCaP cells [1] (setting [5]) was found to be 97.8 nM. Besides, in the data set with CDK12 and CDK13, the “CDK12/13 degradation (immunoblot)” value was “significantly decreased CDK12/13 degradation and cell viability”.

`O=C1CCC(N2C(=O)c3ccc(N4CCC(N5CCN(c6ccc(N(C(=O)NCc7ccccc7)C7CCC(Nc8ncc9ccccc9n8)CC7)cc6)CC5)CC4)cc3C2=O)C(=O)N1` (stereo not shown) [YJ1105]: the IC50 in the data set on VCaP cells [1] (setting [5]) was 15.1 nM and < 20 nM. Besides, the “CDK12/13 degradation (immunoblot)” value with CDK12 and CDK13 was “potent degradation effects”. Moreover, in data set [3] (i.v. 2.5 mg/kg), the area under the curve AUC(0-t) (usually exposure summed from dosing to a finite time, without extrapolation to infinity) was determined as 8039.69 ng·h/mL; the CL is 4.8027 mL/min/kg; the peak concentration (Cmax) (commonly the maximum level reached in the sampled fluid or tissue) turned out to be 1580 nM; the T1/2 is on record as 7.05 h. Also, in data set [3] (i.v. 2.5 mg/kg), the Tmax (usually the time at which the peak concentration occurs) came out at 0.08 h. In data set [3] (oral 10 mg/kg), the “AUC(0-)” value stood at 9805.4 ng·h/mL, the “AUC(0-t)” value was 8567.43 ng·h/mL, the Cmax was determined as 715 nM and the T1/2 was 7.2 h. The Tmax in [3] (oral 10 mg/kg) is recorded as 6 h. In addition, the “F(%) (bioavailability by oral gavage)” value in [3] (oral 10 mg/kg vs i.v. 2.5 mg/kg) was 26.64%.

As for `O=C1CCC(N2C(=O)c3ccc(C=CC(=O)N4CCN(c5ccc(N(C(=O)NCc6ccccc6)C6CCC(Nc7ncc8ccccc8n7)CC6)cc5)CC4)cc3C2=O)C(=O)N1` (stereo not shown) [YJ1114], the IC50 with VCaP cells [1] (setting [5]) stood at 2020 nM. Also, the “CDK12/13 degradation (immunoblot)” value in the data set on CDK12 and CDK13 was “significantly decreased CDK12/13 degradation and cell viability”.

`O=C1CCC(N2C(=O)c3ccc(-c4cccc(C(=O)N5CCN(c6ccc(N(C(=O)NCc7ccccc7)C7CCC(Nc8ncc9ccccc9n8)CC7)cc6)CC5)c4)cc3C2=O)C(=O)N1` (stereo not shown) [YJ1130]: in the data set with VCaP cells [1] (setting [5]), the 50% inhibitory concentration (IC50) came out at 126 nM. Further, in the data set on CDK12 and CDK13, the “CDK12/13 degradation (immunoblot)” value is “significantly decreased CDK12/13 degradation and cell viability”.

For `O=C1CCC(N2C(=O)c3ccc(N4CCC(N5CCN(c6ccc(N(C(=O)NCc7ccccc7)C7CCC(Nc8ncc9ccccc9n8)CC7)cn6)CC5)CC4)cc3C2=O)C(=O)N1` (stereo not shown) [YJ1205], the “CDK12/13 degradation (immunoblot)” value with CDK12 and CDK13 is “potent degradation effects”. In addition, in [3] (i.v. 2.5 mg/kg), the “AUC(0-)” value was 10615.68 ng·h/mL, the “AUC(0-t)” value is 10519.6 ng·h/mL, the CL stood at 3.9307 mL/min/kg and the concentration peaked (Cmax) at 4140 nM. Further, in data set [3] (i.v. 2.5 mg/kg), the T1/2 was 3.81 h and the time of peak concentration (Tmax) was determined as 0.08 h. Moreover, in [3] (oral 10 mg/kg), the “AUC(0-)” value amounted to 6842.8 ng·h/mL, the exposure AUC(0-t) amounted to 6679.0 ng·h/mL, the Cmax was 660 nM and the T1/2 worked out at 4.2 h. Also, the time of peak concentration (Tmax) in data set [3] (oral 10 mg/kg) is 4.7 h.

Take `O=C(NCc1ccccc1)N(c1ccc(N2CCNCC2)cc1)[C@H]1CC[C@H](Nc2ncc3ccccc3n2)CC1` [YJ9068]: in the data set with VCaP cells [1] (setting [4]), the IC50 was 1080 nM. The “CDK12/13 degradation (immunoblot)” value in the data set with CDK12 and CDK13 is “did not affect target protein levels”.

In the case of `O=C1CCC(N2C(=O)c3ccccc3C2=O)C(=O)N1` (stereo not shown) [thalidomide, reference compound], the “CDK12/13 degradation (immunoblot)” value in the data set with CDK12 and CDK13 is “did not affect target protein levels”.

Values taken from PMC11513842, “Development of an orally bioavailable CDK12/13 degrader and induction of synthetic lethality with AKT pathway inhibition” (Cell Reports Medicine, 2024).
